From patent US20200009173A1, “TRIAZOLE-CONTAINING MACROLIDES AND OPHTHALMIC USES THEREFOR” (Tetard, Inc., priority 2017, published 2020)
≈ marks a conversion by molar mass, not a printed value. Read-outs that look alike come from different tables or passages of the source.

Tests used:
P. Acnes = test: MICs of solithromycin and comparator drugs against P. acnes; type: cell-based; details: for MIC50 / MIC90: Cutibacterium acnes
From the text: EXAMPLE. The formulations described herein show overall higher potency against ocular pathogens than commercial standards. MICs (μg/ml) of Solithromycin and Comparator Drugs against P. Acnes (51 Species)

MMP9 = MMP9 activity in PMA-stimulated U937 cells (gelatin zymography); type: cell-based, human
Description: EXAMPLE. […] Cells. The human monocytic cell line U937 was obtained from the American Type Culture Collection (ATCC, Rockville, Md.). PBMCs from COPD patients were obtained from Brompton hospital and separated by AccuSPIN (Sigma-Aldrich). […] U937 cells were differentiated into adherent macrophage-like morphology by exposure to PMA (50 ng/ml) for 48 h in complete growth medium. Cell viability was assessed microscopically by trypan blue staining. Cell toxicity was determined by MTT assay as needed. This study was approved by the ethics committee of the Royal Brompton Hospitals, and all subjects gave written informed consent. Zymography. MMP9 enzyme activity was measured by gelatin zymography. […] After electrophoresis, gels were incubated and rinsed with Novex® zymogram renaturing buffer (Invitrogen) for 30 min at room temperature. The gels were then rinsed in Novex® zymogram developing buffer (Invitrogen) for 30 min at room temperature prior to overnight incubation in the developing buffer at 37° C. After incubation, the gels were stained using a Colloidal Blue Staining Kit (Invitrogen) to visualize the zymogen bands. Statistical analysis. The results were expressed as the mean±SEM. Comparisons of data in two groups were performed using the Student's t test or the Wilcoxon signed rank test. Multiple comparisons were made by one-way ANOVA with post hoc test (Dunnett's) as appropriate. The difference was considered significant at p<0.05.

CXCL8 = CXCL8 (IL-8) production in LPS-stimulated PMA-differentiated U937 cells (ELISA); type: cell-based, human
Description: (§1) EXAMPLE. […] Cells. The human monocytic cell line U937 was obtained from the American Type Culture Collection (ATCC, Rockville, Md.). PBMCs from COPD patients were obtained from Brompton hospital and separated by AccuSPIN (Sigma-Aldrich). […] U937 cells were differentiated into adherent macrophage-like morphology by exposure to PMA (50 ng/ml) for 48 h in complete growth medium. Cell viability was assessed microscopically by trypan blue staining. Cell toxicity was determined by MTT assay as needed. This study was approved by the ethics committee of the Royal Brompton Hospitals, and all subjects gave written informed consent. Cytokine ELISA. TNFα and IL-8 concentrations in the supernatant of cell cultures were determined by sandwich ELISA according to the manufacturer's instructions (R&D Systems Europe, Abingdon, UK). Statistical analysis. The results were expressed as the mean±SEM. Comparisons of data in two groups were performed using the Student's t test or the Wilcoxon signed rank test. Multiple comparisons were made by one-way ANOVA with post hoc test (Dunnett's) as appropriate. The difference was considered significant at p<0.05. […] Anti-inflammatory effects of solithromycin in U937 cells.

TNFα = TNFα production in LPS-stimulated PMA-differentiated U937 cells (ELISA); type: cell-based, human
Description: as §1

S. pneumoniae = test: MICs of solithromycin and comparator drugs, S. pneumoniae (30 species); type: cell-based; details: for MIC50 / MIC90: Streptococcus pneumoniae
From the text: (§2) EXAMPLE. The formulations described herein show overall higher potency against ocular pathogens than commercial standards.
(§3) MICs (μg/ml) of Solithromycin and Comparator Drugs against Bacterial Species

MSSA = test: MICs of solithromycin and comparator drugs, MSSA (31 species); type: cell-based; details: for MIC50 / MIC90: Staphylococcus aureus, MSSA
From the text: as §2, §3

S. epidermidis = test: MICs of solithromycin and comparator drugs, S. epidermidis (30 species); type: cell-based; details: for MIC50 / MIC90: Staphylococcus epidermidis
From the text: as §2, §3

MSRA = test: MICs of solithromycin and comparator drugs, MSRA (30 species); type: cell-based; details: for I (intermediate susceptibility) / NS (not susceptible) / S (susceptible): 30 species
From the text: as §2, §3

H. influenzae = test: MICs of solithromycin and comparator drugs, H. influenzae (30 species); type: cell-based; details: for MIC50 / MIC90: Haemophilus influenzae
From the text: as §2, §3

[1] = at a higher concentration (333 μM)

Structure (SMILES): C=CC1=C(C(=O)O)N2C(=O)[C@@H](NC(=O)/C(=N\O)c3csc(N)n3)[C@H]2SC1 [Cefdinir]
- MIC Range (P. Acnes): ≤0.015 to 0.12 µg/mL
- MIC50 (P. Acnes; 51 species): 0.03 µg/mL (≈ 0.0759 µM)
- MIC90 (P. Acnes; 51 species): 0.12 µg/mL (≈ 0.303 µM)

Structure (SMILES): C=CC1=C(C(=O)O)N2C(=O)[C@@H](NC(=O)/C(=N\OCC(=O)O)c3csc(N)n3)[C@H]2SC1 [Cefixime]
- MIC Range (P. Acnes): ≤0.03 to 0.5 µg/mL
- MIC50 (P. Acnes; 51 species): 0.25 µg/mL (≈ 0.551 µM)
- MIC90 (P. Acnes; 51 species): 0.5 µg/mL (≈ 1.1 µM)

Structure (SMILES): COCC1=C(C(=O)O)N2C(=O)[C@@H](NC(=O)/C(=N\OC)c3csc(N)n3)[C@H]2SC1 [Cefpodoxime]
- MIC Range (P. Acnes): ≤0.015 to 2 µg/mL
- MIC50 (P. Acnes; 51 species): 0.5 µg/mL (≈ 1.17 µM)
- MIC90 (P. Acnes; 51 species): 2 µg/mL (≈ 4.68 µM)

Structure (SMILES): CC[C@H]1OC(=O)[C@H](C)[C@@H](O[C@H]2C[C@@](C)(OC)[C@@H](O)[C@H](C)O2)[C@H](C)[C@@H](O[C@@H]2O[C@H](C)C[C@H](N(C)C)[C@H]2O)[C@](C)(OC)C[C@@H](C)C(=O)[C@H](C)[C@@H](O)[C@]1(C)O [Clarithromycin, clarithromycin]
- inhibitory effect on MMP9 activity, lower than solithromycin (MMP9): 10 fold
- IC50 (CXCL8; Homo sapiens, U-937, LPS, PMA-differentiated U937 cells, read-out: IC50 on CXCL8 release): 506 ± 44 µM
- effect on IL-8 production (CXCL8; [1]): modest effects
- IC50 (TNFα; Homo sapiens, U-937, LPS, PMA-differentiated U937 cells, read-out: IC50 on TNFα release): 426 ± 63.9 µM
- effect on TNFα production (TNFα; [1]): modest effects
- MIC Range (P. Acnes): ≤0.015 to 0.5 µg/mL
- MIC50 (P. Acnes; 51 species): ≤ 0.015 µg/mL
- MIC90 (P. Acnes; 51 species): 0.25 µg/mL (≈ 0.334 µM)

Structure (SMILES): C[C@H]1c2cccc(O)c2C(=O)C2=C(O)[C@]3(O)C(=O)C(C(N)=O)=C(O)[C@@H](N(C)C)[C@@H]3[C@@H](O)[C@@H]21 [Doxycycline]
- MIC Range (P. Acnes): ≤0.008 to 1 µg/mL
- MIC50 (P. Acnes; 51 species): 0.06 µg/mL (≈ 0.135 µM)
- MIC90 (P. Acnes; 51 species): 0.12 µg/mL (≈ 0.27 µM)

Structure (SMILES): C[C@H]1COc2c(N3CCN(C)CC3)c(F)cc3c(=O)c(C(=O)O)cn1c23 [Levofloxacin]
- MIC Range (P. Acnes): 0.06 to 2 µg/mL
- MIC50 (P. Acnes; 51 species): 1 µg/mL (≈ 2.77 µM)
- MIC90 (P. Acnes; 51 species): 1 µg/mL (≈ 2.77 µM)

Structure (SMILES): CC(=O)NC[C@H]1CN(c2ccc(N3CCOCC3)c(F)c2)C(=O)O1 [Linezolid]
- MIC Range (P. Acnes): ≤0.03 to 0.5 µg/mL
- MIC50 (P. Acnes; 51 species): 0.25 µg/mL (≈ 0.741 µM)
- MIC90 (P. Acnes; 51 species): 0.5 µg/mL (≈ 1.48 µM)

Structure (SMILES): COc1c(N2C[C@@H]3CCCN[C@@H]3C2)c(F)cc2c(=O)c(C(=O)O)cn(C3CC3)c12 [Moxifloxacin]
- I (intermediate susceptibility) (S. pneumoniae): 0%
- MIC Range (S. pneumoniae): 0.015 to 0.25 µg/mL
- NS (not susceptible) (S. pneumoniae): 0%
- S (susceptible) (S. pneumoniae): 100%
- MIC50 (S. pneumoniae): 0.12 µg/mL (≈ 0.299 µM)
- MIC90 (S. pneumoniae): 0.25 µg/mL (≈ 0.623 µM)
- I (intermediate susceptibility) (MSSA): 0%
- MIC Range (MSSA): 0.015 to 2 µg/mL
- NS (not susceptible) (MSSA): 6%
- S (susceptible) (MSSA): 94%
- MIC50 (MSSA): 0.06 µg/mL (≈ 0.149 µM)
- MIC90 (MSSA): 0.12 µg/mL (≈ 0.299 µM)
- I (intermediate susceptibility) (S. epidermidis): 3%
- NS (not susceptible) (S. epidermidis): 13%
- S (susceptible) (S. epidermidis): 83%
- MIC50 (S. epidermidis): 0.06 µg/mL (≈ 0.149 µM)
- MIC90 (S. epidermidis): 4 µg/mL (≈ 9.96 µM)
- MIC50 (MSRA): 2 µg/mL (≈ 4.98 µM)
- MIC90 (MSRA): 8 µg/mL (≈ 19.9 µM)
- I (intermediate susceptibility) (MSRA): 3%
- NS (not susceptible) (MSRA): 87%
- S (susceptible) (MSRA): 10%
- I (intermediate susceptibility) (H. influenzae): 0%
- MIC Range (H. influenzae): 0.015 to 0.06 µg/mL
- NS (not susceptible) (H. influenzae): 0%
- S (susceptible) (H. influenzae): 100%
- MIC50 (H. influenzae): 0.03 µg/mL (≈ 0.0747 µM)
- MIC90 (H. influenzae): 0.06 µg/mL (≈ 0.149 µM)

Structure (SMILES): CC[C@H]1OC(=O)[C@H](C)C(=O)[C@H](C)[C@@H](O[C@@H]2O[C@H](C)C[C@H](N(C)C)[C@H]2O)[C@](C)(OC)C[C@@H](C)C(=O)[C@H](C)[C@H]2N(CCCCn3cnc(-c4cccnc4)c3)C(=O)O[C@]12C [Telithromycin]
- IC50 (MMP9; Homo sapiens, U-937): 97.9 µM
- effect on CXCL8 production (CXCL8; at 100 μM): did not inhibit
- effect on TNFα production (TNFα; at 100 μM): did not inhibit

Structure (SMILES): NC[C@H]1O[C@H](O[C@H]2[C@H](O)[C@@H](O[C@H]3O[C@H](CO)[C@@H](O)[C@H](N)[C@H]3O)[C@H](N)C[C@@H]2N)[C@H](N)C[C@@H]1O [Tobramycin]
- MIC Range (S. pneumoniae): 4 to 16 µg/mL
- MIC50 (S. pneumoniae): 16 µg/mL (≈ 34.2 µM)
- MIC90 (S. pneumoniae): 16 µg/mL (≈ 34.2 µM)
- I (intermediate susceptibility) (MSSA): 0%
- MIC Range (MSSA): 0.12 to 4 µg/mL
- NS (not susceptible) (MSSA): 0%
- S (susceptible) (MSSA): 100%
- MIC50 (MSSA): 0.5 µg/mL (≈ 1.07 µM)
- MIC90 (MSSA): 0.5 µg/mL (≈ 1.07 µM)
- I (intermediate susceptibility) (S. epidermidis): 3%
- MIC Range (S. epidermidis): 0.12 to 64 µg/mL
- NS (not susceptible) (S. epidermidis): 23%
- S (susceptible) (S. epidermidis): 73%
- MIC50 (S. epidermidis): 0.5 µg/mL (≈ 1.07 µM)
- MIC90 (S. epidermidis): 32 µg/mL (≈ 68.4 µM)
- MIC50 (MSRA): 1 µg/mL (≈ 2.14 µM)
- MIC90 (MSRA): > 64 µg/mL
- I (intermediate susceptibility) (MSRA): 3%
- NS (not susceptible) (MSRA): 30%
- S (susceptible) (MSRA): 67%
- MIC Range (H. influenzae): 2 to 8 µg/mL
- MIC50 (H. influenzae): 4 µg/mL (≈ 8.56 µM)
- MIC90 (H. influenzae): 4 µg/mL (≈ 8.56 µM)

Structure (SMILES): CN[C@H](CC(C)C)C(=O)N[C@H]1C(=O)N[C@@H](CC(N)=O)C(=O)N[C@H]2C(=O)N[C@H]3C(=O)N[C@H](C(=O)N[C@H](C(=O)O)c4cc(O)cc(O)c4-c4cc3ccc4O)[C@H](O)c3ccc(c(Cl)c3)Oc3cc2cc(c3O[C@@H]2O[C@H](CO)[C@@H](O)[C@H](O)[C@H]2O[C@H]2C[C@](C)(N)[C@H](O)[C@H](C)O2)Oc2ccc(cc2Cl)[C@H]1O [Vancomycin]
- MIC Range (P. Acnes; 51 species): 0.12 to 1 µg/mL
- MIC50 (P. Acnes; 51 species): 1 µg/mL (≈ 0.69 µM)
- MIC90 (P. Acnes; 51 species): 1 µg/mL (≈ 0.69 µM)

Structure (SMILES): CC[C@H]1OC(=O)[C@H](C)[C@@H](O[C@H]2C[C@@](C)(OC)[C@@H](O)[C@H](C)O2)[C@H](C)[C@@H](O[C@@H]2O[C@H](C)C[C@H](N(C)C)[C@H]2O)[C@](C)(O)C[C@@H](C)C(=O)[C@H](C)[C@@H](O)[C@]1(C)O [erythromycin]
- effect on MMP9 activity (MMP9): no effect
- effect on IL-8 production (CXCL8; concentration not given): did not inhibit
- effect on TNFα production (TNFα; concentration not given): did not inhibit
